Results taken from article PMC8599628 (Journal of clinical pharmacology, 2021).
Several values for one entry are separate records, joined by “and”; a condition that tells them apart may be missing. Equal entries are not always repeated. Where two headings read alike, the source gives them in different places.

Tests used:
[1] = cited from earlier work
[2] = cited from earlier work; remark: listed apart in the source
[3] = test system: markers of immune activation; details: 10 mg bid for 5 weeks, virologically suppressed HIV+ participants; cited from earlier work
[4] = cited from earlier work; remark: listed apart in the source
CYP3A = details: 25 mg RIL daily; cited from earlier work
CYP3A4/5 = details: cited from earlier work

For `N#CC[C@H](C1CCCC1)n1cc(-c2ncnc3[nH]ccc23)cn1` [ruxolitinib], the “reduction of ruxolitinib CL/F” value ([1]; 10 mg ruxolitinib tablet with 200 mg bid ketoconazole, N = 16) is given as 91%, the “reduction of ruxolitinib CL/F” value ([1]; 10 mg ruxolitinib tablet with 500 mg erythromycin, N = 15) is given as 21% and the “increase in ruxolitinib CL/F” value ([1]; 30 mg ruxolitinib tablet before and after 10 days of 600 mg rifampin, healthy participants N = 12) is given as 71%. The orally absorbed [2] was greater than 95%, the “markers of immune activation” value [3] was “significantly decreased” and the “CL/F typical value (with EFV)” value (Model IV (separated CL/F by EFV status), participants administered ART with EFV (N = 14)) was 22.5 L/h and 21.2 L/h. For the same compound, the “IIV V1 ω^2” value (both, human, in vivo) was 0.0607, the “IOV F ω^2” value (both, human, in vivo) was 0.0669 and the “IOV F ω^2” value (both, human, in vivo, po) was 0.0567. The “ruxolitinib CL/F with co-administered RIL regimens” value (co-administered RIL/FTC/TAF (N = 3) or RIL/FTC/TDF (N = 1)) was “not increased”, the “median post hoc estimated CL/F” value (men, wk1) was 16.0 L/h and the “median post hoc estimated CL/F” value (men, wk4/5) was 14.3 L/h. The “geometric mean CL/F (post hoc, Model IV)” value (wk1, EFV/FTC/TDF group) was 22.3 L/h, the “geometric mean CL/F (post hoc, Model IV)” value (wk1, INSTI group) was 13.8 L/h and the “mean post hoc predicted CL/F” value (wk1, N = 39) was 16.6 L/h. For the same compound, the “geometric mean CL/F (post hoc, Model IV)” value (wk4/5, EFV/FTC/TDF group) was 20.8 L/h, the “geometric mean CL/F (post hoc, Model IV)” value (wk4/5, INSTI group) was 12.7 L/h and the “mean post hoc predicted CL/F” value (wk4/5, N = 37) was 15.7 L/h. The “median post hoc estimated CL/F” value (women, wk1) was 15.2 L/h, the “median post hoc estimated CL/F” value (women, wk4/5) was 13.6 L/h and the “IIV Ka” value [4] was 75%. For the same compound, the “IIV V1” value [4] was 28%, the “IIV V2/F” value [4] was 102% and the V2 [4] was 11.2 L. The “IIV CL/F” value ([4]; myelofibrosis patients) was 39.1% and the V1 ([4]; normalized to a mean body weight of 72.9 kg) was 58.6 L.

For `Cc1cc(/C=C/C#N)cc(C)c1Nc1ccnc(Nc2ccc(C#N)cc2)n1` [RIL, rilpivirine], the “effect on CYP3A-dependent drug metabolism” value (CYP3A) is listed as “did not alter”.

In the case of `O=C1Nc2ccc(Cl)cc2[C@@](C#CC2CC2)(C(F)(F)F)O1` [EFV, efavirenz], the “median increase in plasma 4β-OHCC/cholesterol ratio” value (CYP3A4/5; 4th week after initiation of ART with EFV) is given as 257%, the “median increase in plasma 4β-OHCC/cholesterol ratio” value (CYP3A4/5; 16th week after initiation of ART with EFV) is given as 291% and the “median increase in plasma 4β-OHCC/cholesterol ratio” value (CYP3A4/5; 48th week after initiation of ART with EFV) is given as 165%.
